Laboratory results from the supplement of paper PMC10307832.

Tests used:
Test in all cases: relative viability (nuclei count vs DMSO), 5 days (fraction); higher = more cells survive
NCI-H2228 = tested on: NCI-H2228
Summary of the method: (§1)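 One day after seeding in 1536-well plates, lung cancer cell lines were dosed by pin tool. Dosing was either single-drug or a fixed anchor-drug dose plus five library-drug doses (not always all listed) in √10 steps. After 5 days, nuclei were stained in one fix-and-stain step and counted on 4× images, and relative viability is the nuclei count of treated wells over that of vehicle wells, given as the median of duplicate plates.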

UMC-11 = tested on: UMC-11
Summary of the method: as §1

LC-2-ad = tested on: LC-2-ad
Summary of the method: as §1

ABC-1 = tested on: ABC-1
Summary of the method: as §1

NCI-H1755 = tested on: NCI-H1755
Summary of the method: as §1

NCI-H1651 = tested on: NCI-H1651
Summary of the method: as §1

NCI-H1793 = tested on: NCI-H1793
Summary of the method: as §1

NCI-H3122 = tested on: NCI-H3122
Summary of the method: as §1

LU99A = tested on: LU99A
Summary of the method: as §1

CAL-12T = tested on: CAL-12T
Summary of the method: as §1

NCI-H2405 = tested on: NCI-H2405
Summary of the method: as §1

NCI-H2170 = tested on: NCI-H2170
Summary of the method: as §1

NCI-H1395 = tested on: NCI-H1395
Summary of the method: as §1

NCI-H1944 = tested on: NCI-H1944
Summary of the method: as §1

NCI-H2087 = tested on: NCI-H2087
Summary of the method: as §1

RERF-LC-KJ = tested on: RERF-LC-KJ
Summary of the method: as §1

NCI-H460 = tested on: NCI-H460
Summary of the method: as §1

HCC-78 = tested on: HCC-78
Summary of the method: as §1

PC-3 [JPC-3] = tested on: PC-3 [JPC-3]
Summary of the method: as §1

LOU-NH91 = tested on: LOU-NH91
Summary of the method: as §1

HCC-366 = tested on: HCC-366
Summary of the method: as §1

**Q.** What does the source list for `COc1cc2nccc(Oc3ccc(NC(=O)Nc4cc(C)on4)c(Cl)c3)c2cc1OC` [Tivozanib] + Cc1nc(NC(=O)N2CCC[C@H]2C(N)=O)sc1-c1ccnc(C(C)(C)C(F)(F)F)c1 [Alpelisib] (partner 2 µM)?
**A.** relative viability (NCI-H2228; first compound 0.005 µM): 0.653; relative viability (NCI-H2228; first compound 0.01581 µM): 0.81; relative viability (NCI-H2228; first compound 0.05 µM): 0.944; relative viability (NCI-H2228; first compound 0.1581 µM): 0.743; relative viability (NCI-H2228; first compound 0.5 µM): 0.72; relative viability (UMC-11; first compound 0.005 µM): 1.11; relative viability (UMC-11; first compound 0.01581 µM): 0.846; relative viability (UMC-11; first compound 0.05 µM): 0.964; relative viability (UMC-11; first compound 0.5 µM): 0.959; relative viability (LC-2-ad; first compound 0.005 µM): 0.902; relative viability (LC-2-ad; first compound 0.01581 µM): 0.809; relative viability (LC-2-ad; first compound 0.05 µM): 0.8; relative viability (LC-2-ad; first compound 0.1581 µM): 0.629; relative viability (LC-2-ad; first compound 0.5 µM): 0.654; relative viability (ABC-1; first compound 0.005 µM): 0.971; relative viability (ABC-1; first compound 0.01581 µM): 0.99; relative viability (ABC-1; first compound 0.05 µM): 0.917; relative viability (ABC-1; first compound 0.1581 µM): 1.27; relative viability (ABC-1; first compound 0.5 µM): 1.08; relative viability (NCI-H1755; first compound 0.005 µM): 0.925; relative viability (NCI-H1755; first compound 0.01581 µM): 0.888; relative viability (NCI-H1755; first compound 0.05 µM): 1.01; relative viability (NCI-H1755; first compound 0.1581 µM): 0.934; relative viability (NCI-H1755; first compound 0.5 µM): 0.84; relative viability (NCI-H1651; first compound 0.005 µM): 0.985; relative viability (NCI-H1651; first compound 0.01581 µM): 0.842; relative viability (NCI-H1651; first compound 0.05 µM): 0.781; relative viability (NCI-H1651; first compound 0.1581 µM): 0.879; relative viability (NCI-H1651; first compound 0.5 µM): 0.889; relative viability (NCI-H1793; first compound 0.005 µM): 0.643; relative viability (NCI-H1793; first compound 0.01581 µM): 0.617; relative viability (NCI-H1793; first compound 0.05 µM): 0.729; relative viability (NCI-H1793; first compound 0.5 µM): 0.705; relative viability (NCI-H3122; first compound 0.005 µM): 0.668; relative viability (NCI-H3122; first compound 0.01581 µM): 0.792; relative viability (NCI-H3122; first compound 0.05 µM): 0.798; relative viability (NCI-H3122; first compound 0.1581 µM): 0.973; relative viability (NCI-H3122; first compound 0.5 µM): 0.983; relative viability (LU99A; first compound 0.005 µM): 0.484; relative viability (LU99A; first compound 0.01581 µM): 0.555; relative viability (LU99A; first compound 0.05 µM): 0.521; relative viability (LU99A; first compound 0.5 µM): 0.469; relative viability (CAL-12T; first compound 0.005 µM): 1.11; relative viability (CAL-12T; first compound 0.01581 µM): 1.07; relative viability (CAL-12T; first compound 0.05 µM): 1.31; relative viability (CAL-12T; first compound 0.5 µM): 1.32; relative viability (NCI-H2405; first compound 0.005 µM): 0.776; relative viability (NCI-H2405; first compound 0.01581 µM): 0.878; relative viability (NCI-H2405; first compound 0.05 µM): 0.823; relative viability (NCI-H2405; first compound 0.1581 µM): 0.737; relative viability (NCI-H2405; first compound 0.5 µM): 0.641; relative viability (NCI-H2170; first compound 0.005 µM): 0.885; relative viability (NCI-H2170; first compound 0.01581 µM): 0.952; relative viability (NCI-H2170; first compound 0.05 µM): 0.799; relative viability (NCI-H2170; first compound 0.5 µM): 0.867; relative viability (NCI-H1395; first compound 0.005 µM): 0.951; relative viability (NCI-H1395; first compound 0.01581 µM): 1.08; relative viability (NCI-H1395; first compound 0.05 µM): 1.01; relative viability (NCI-H1395; first compound 0.1581 µM): 1.05; relative viability (NCI-H1395; first compound 0.5 µM): 0.91; relative viability (NCI-H1944; first compound 0.005 µM): 0.889; relative viability (NCI-H1944; first compound 0.01581 µM): 0.902; relative viability (NCI-H1944; first compound 0.05 µM): 0.885; relative viability (NCI-H1944; first compound 0.1581 µM): 0.733; relative viability (NCI-H1944; first compound 0.5 µM): 0.912; relative viability (NCI-H2087; first compound 0.005 µM): 1.04; relative viability (NCI-H2087; first compound 0.01581 µM): 1.03; relative viability (NCI-H2087; first compound 0.05 µM): 1.18; relative viability (NCI-H2087; first compound 0.1581 µM): 0.886; relative viability (NCI-H2087; first compound 0.5 µM): 1.04; relative viability (RERF-LC-KJ; first compound 0.005 µM): 0.729; relative viability (RERF-LC-KJ; first compound 0.01581 µM): 0.757; relative viability (RERF-LC-KJ; first compound 0.05 µM): 0.965; relative viability (RERF-LC-KJ; first compound 0.1581 µM): 0.689; relative viability (RERF-LC-KJ; first compound 0.5 µM): 0.834; relative viability (NCI-H460; first compound 0.005 µM): 0.483; relative viability (NCI-H460; first compound 0.01581 µM): 0.422; relative viability (NCI-H460; first compound 0.05 µM): 0.454; relative viability (NCI-H460; first compound 0.1581 µM): 0.609; relative viability (NCI-H460; first compound 0.5 µM): 0.543; relative viability (HCC-78; first compound 0.005 µM): 0.327; relative viability (HCC-78; first compound 0.01581 µM): 0.347; relative viability (HCC-78; first compound 0.05 µM): 0.315; relative viability (HCC-78; first compound 0.1581 µM): 0.248; relative viability (HCC-78; first compound 0.5 µM): 0.316; relative viability (PC-3 [JPC-3]; first compound 0.005 µM): 0.988; relative viability (PC-3 [JPC-3]; first compound 0.01581 µM): 1.11; relative viability (PC-3 [JPC-3]; first compound 0.05 µM): 1.15; relative viability (PC-3 [JPC-3]; first compound 0.1581 µM): 0.957; relative viability (PC-3 [JPC-3]; first compound 0.5 µM): 0.997; relative viability (LOU-NH91; first compound 0.005 µM): 0.69; relative viability (LOU-NH91; first compound 0.01581 µM): 0.698; relative viability (LOU-NH91; first compound 0.05 µM): 0.778; relative viability (LOU-NH91; first compound 0.1581 µM): 0.732; relative viability (LOU-NH91; first compound 0.5 µM): 0.752; relative viability (HCC-366; first compound 0.005 µM): 0.297; relative viability (HCC-366; first compound 0.01581 µM): 0.448; relative viability (HCC-366; first compound 0.05 µM): 0.381; relative viability (HCC-366; first compound 0.1581 µM): 0.51; relative viability (HCC-366; first compound 0.5 µM): 0.388
